Reference: the Kinase Knowledgebase extract (Sharma et al. 2016)
pIC50: −log10 of the molar value.

Molecular target: PIK3CG (human) (UniProt P48736)
Experiment: Assessment of PIK3CG Kinase Activity

Sequence of PIK3CG (human) (P48736 whole entry, looked up): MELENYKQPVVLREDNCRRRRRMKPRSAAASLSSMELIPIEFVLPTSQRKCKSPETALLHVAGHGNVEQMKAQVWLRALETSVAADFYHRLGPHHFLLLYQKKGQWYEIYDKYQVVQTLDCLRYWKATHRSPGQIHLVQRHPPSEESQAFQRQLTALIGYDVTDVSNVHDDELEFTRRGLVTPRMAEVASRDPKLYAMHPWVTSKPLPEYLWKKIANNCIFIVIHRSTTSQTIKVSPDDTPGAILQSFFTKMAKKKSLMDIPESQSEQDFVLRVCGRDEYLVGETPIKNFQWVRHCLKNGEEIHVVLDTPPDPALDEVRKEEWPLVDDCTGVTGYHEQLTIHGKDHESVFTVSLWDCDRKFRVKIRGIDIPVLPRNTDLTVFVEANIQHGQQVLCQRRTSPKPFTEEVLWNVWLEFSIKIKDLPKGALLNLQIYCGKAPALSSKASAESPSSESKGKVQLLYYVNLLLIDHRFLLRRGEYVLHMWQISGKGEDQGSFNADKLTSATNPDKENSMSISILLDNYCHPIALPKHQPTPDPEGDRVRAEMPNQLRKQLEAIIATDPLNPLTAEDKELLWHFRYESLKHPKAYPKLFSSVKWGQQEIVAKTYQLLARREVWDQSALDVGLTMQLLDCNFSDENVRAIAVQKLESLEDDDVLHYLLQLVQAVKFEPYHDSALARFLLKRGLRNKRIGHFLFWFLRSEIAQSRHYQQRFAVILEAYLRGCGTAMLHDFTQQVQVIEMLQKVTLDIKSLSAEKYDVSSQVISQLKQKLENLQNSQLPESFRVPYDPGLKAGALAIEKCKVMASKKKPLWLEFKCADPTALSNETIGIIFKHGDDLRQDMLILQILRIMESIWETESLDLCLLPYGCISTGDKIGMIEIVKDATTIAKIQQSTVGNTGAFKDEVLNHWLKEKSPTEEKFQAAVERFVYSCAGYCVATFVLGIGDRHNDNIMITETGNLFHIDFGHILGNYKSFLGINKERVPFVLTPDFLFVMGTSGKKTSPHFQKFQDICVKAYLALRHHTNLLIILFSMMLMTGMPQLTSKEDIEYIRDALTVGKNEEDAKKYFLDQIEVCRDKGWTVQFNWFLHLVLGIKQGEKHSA

Structure (SMILES)	pIC50
O=C(NCCc1nc(C2CC2)no1)Nc1nc2c(s1)-c1c(c(C3CC3)nn1-c1ccccc1Cl)CC2	> 6.10
O=C(NC[C@H]1CCN(C(=O)N2CCCCC2)C1)Nc1nc2c(s1)-c1c(c(-c3cncnc3)nn1-c1ccccc1Cl)CC2	> 6.10
O=C(NCCCN1CCOCC1)Nc1nc2c(s1)-c1c(c(-c3cncnc3)nn1-c1ccccc1Cl)CC2	> 6.10
CCN1CCC2(CCN(C(=O)Nc3nc4c(s3)-c3c(c(-c5cccnc5)nn3-c3ccccc3Cl)CC4)C2)C1 (stereo not drawn)	> 6.10
O=C(Nc1nc2c(s1)-c1c(c(-c3ccccc3)nn1-c1ccccc1Cl)CC2)NC1CCS(=O)(=O)C1 (stereo not drawn)	> 6.10
CCc1cnc(CCNC(=O)Nc2nc3c(s2)-c2c(c(Nc4ccccn4)nn2-c2ccccc2)CC3)o1	> 6.10
Cc1nc(C)c(S(=O)(=O)NCCNC(=O)Nc2nc3c(s2)-c2c(c(-c4ccccc4)nn2-c2ccccc2Cl)CC3)s1	> 6.10
O=C(Nc1nc2c(s1)-c1c(cnn1-c1ccccc1)CC2)N1CCCCC1	> 6.10
CN1CCC(n2nc(-c3cncnc3)c3c2-c2sc(NC(=O)NC[C@H]4CCCN4C(=O)N4CCCC4)nc2CC3)CC1	> 6.10
CC(C)(C)OC(=O)CCNC(=O)Nc1nc2c(s1)-c1c(c(-c3cccnc3)nn1C1CCN(C3CCCC3)CC1)CC2	> 6.10
NC(=O)Nc1nc2c(s1)-c1c(c(-c3cncnc3)nn1-c1ccccc1F)CC2	> 6.10
O=C(Nc1nc2c(s1)-c1c(c(-c3cccnc3)nn1-c1ccccc1Cl)CC2)N1CCC2(CC1)C(=O)NCN2c1ccccc1	> 6.10
CCc1cnc(CCNC(=O)Nc2nc3c(s2)-c2c(c(C4CC4)nn2-c2ccccc2Cl)CC3)o1	> 6.10
CC(C)(C)OC(=O)CC1(O)CCN(C(=O)Nc2nc3c(s2)-c2c(c(-c4cccnc4)nn2-c2ccccc2Cl)CC3)CC1	> 6.10
CCCn1cnc(CCNC(=O)Nc2nc3c(s2)-c2c(c(-c4ccccc4)nn2-c2cccc(Cl)c2)CC3)c1	> 6.10
CCc1noc(CCNC(=O)Nc2nc3c(s2)-c2c(c(-c4cccnc4)nn2C2CCN(C)CC2)CC3)n1	> 6.10
O=C(NCCn1ccnc1)Nc1nc2c(s1)-c1c(c(-c3cncnc3)nn1-c1ccccc1Cl)CC2	> 6.10
CCc1noc(CCNC(=O)Nc2nc3c(s2)-c2c(c(C4CC4)nn2-c2ccccc2Cl)CC3)n1	> 6.10
O=C(NCCn1ccnc1)Nc1nc2c(s1)-c1c(c(-c3cncnc3)nn1-c1ccccc1F)CC2	> 6.10
Cn1cc(CCNC(=O)Nc2nc3c(s2)-c2c(c(-c4cncnc4)nn2-c2ccccc2Cl)CC3)cn1	> 6.10
O=C(NCCNS(=O)(=O)c1ccccn1)Nc1nc2c(s1)-c1c(c(-c3ccccc3)nn1-c1ccccc1Cl)CC2	> 6.10
CCc1cnc(CCNC(=O)Nc2nc3c(s2)-c2c(c(-c4cncnc4)nn2C2CCN(C)CC2)CC3)o1	> 6.10
O=C(Nc1nc2c(s1)-c1c(c(-c3cccnc3)nn1-c1ccccc1Cl)CC2)N1CCCCC1c1nc2ccccc2[nH]1 (stereo not drawn)	> 6.10
O=C(NCCN1CCOCC1)Nc1nc2c(s1)-c1c(c(-c3cncnc3)nn1-c1ccccc1Cl)CC2	> 6.10
CN(C)C(=O)N1CCC[C@@H]1CNC(=O)Nc1nc2c(s1)-c1c(c(-c3cncnc3)nn1-c1ccccc1Cl)CC2	> 6.10

Structure (SMILES)	pIC50
O=C(NCCC(=O)N1CCCCC1)Nc1nc2c(s1)-c1c(c(-c3cncnc3)nn1-c1ccccc1Cl)CC2	> 6.10
O=C(NC[C@H]1CCCN1C(=O)N1CCCC1)Nc1nc2c(s1)-c1c(c(-c3cncnc3)nn1-c1ccccc1Cl)CC2	> 6.10
CC(C)c1noc(CCNC(=O)Nc2nc3c(s2)-c2c(c(-c4cccnc4)nn2C2CCN(C)CC2)CC3)n1	> 6.10
CCc1cccc(CNC(=O)Nc2nc3c(s2)-c2c(c(C4CC4)nn2-c2ccccc2Cl)CC3)c1	> 6.10
O=C(NCC1CCCNC1)Nc1nc2c(s1)-c1c(c(-c3cncnc3)nn1-c1ccccc1Cl)CC2 (stereo not drawn)	> 6.10
COC(=O)N1CC[C@H](CNC(=O)Nc2nc3c(s2)-c2c(c(-c4cncnc4)nn2-c2ccccc2Cl)CC3)C1	> 6.10
O=C(NCCC(=O)N1CCCC1)Nc1nc2c(s1)-c1c(c(-c3cncnc3)nn1-c1ccccc1Cl)CC2	> 6.10
C[C@@H](NC(=O)Nc1nc2c(s1)-c1c(c(-c3ccccc3)nn1-c1ccccc1Cl)CC2)C(=O)N1CCCCC1	> 6.10
CC(C)(C)OC(=O)N1CCC[C@@H]1CNC(=O)Nc1nc2c(s1)-c1c(c(-c3cncnc3)nn1-c1ccccc1Cl)CC2	> 6.10
CN1CCN(C(=O)CCNC(=O)Nc2nc3c(s2)-c2c(c(-c4ccccc4)nn2-c2ccccc2Cl)CC3)CC1	> 6.10
CC(C)c1nnc(CCNC(=O)Nc2nc3c(s2)-c2c(c(-c4cncnc4)nn2-c2ccccc2Cl)CC3)o1	> 6.10
C[C@H](NC(=O)Nc1nc2c(s1)-c1c(c(-c3ccccc3)nn1-c1ccccc1Cl)CC2)C(=O)N1CCCCC1	> 6.10
O=C(Nc1nc2c(s1)-c1c(c(-c3cccnc3)nn1-c1ccccc1Cl)CC2)N1CCC(CN2CCc3ccccc3C2=O)C1 (stereo not drawn)	> 6.10
CN(C)C(=O)Nc1nc2c(s1)-c1c(c(-c3cncnc3)nn1-c1ccccc1Cl)CC2	> 6.10
CCc1csc(CCNC(=O)Nc2nc3c(s2)-c2c(c(-c4cncnc4)nn2-c2ccccc2Cl)CC3)n1	> 6.10
COc1cccc(CCNC(=O)Nc2nc3c(s2)-c2c(c(-c4cncnc4)nn2-c2ccccc2Cl)CC3)c1OC	> 6.10
CC(C)(C)OC(=O)CCNC(=O)Nc1nc2c(s1)-c1c(c(C3CC3)nn1-c1ccccc1Cl)CC2	> 6.10
CC(C)c1nnc(CCNC(=O)Nc2nc3c(s2)-c2c(c(C4CC4)nn2-c2ccccc2Cl)CC3)o1	> 6.10
CC(C)c1noc(CCNC(=O)Nc2nc3c(s2)-c2c(c(-c4cncnc4)nn2-c2ccccc2Cl)CC3)n1	> 6.10
O=C(NCCn1cc[nH]c1=O)Nc1nc2c(s1)-c1c(c(-c3ccccc3)nn1-c1ccccc1Cl)CC2	> 6.10
NC(=O)Nc1nc2c(s1)-c1c(c(-c3cncnc3)nn1-c1ccccc1Cl)CC2	> 6.10
O=C(NC[C@H]1CCNC1)Nc1nc2c(s1)-c1c(c(-c3ccccc3)nn1-c1cccc(Cl)c1)CC2	> 6.10
CCc1cnc(CCNC(=O)Nc2nc3c(s2)-c2c(c(-c4cncnc4)nn2-c2ccccc2Cl)CC3)o1	> 6.10
CCN(CC)CCNC(=O)Nc1nc2c(s1)-c1c(c(-c3cncnc3)nn1-c1ccccc1F)CC2	> 6.10

Results, then the compound that gave them:

pIC50	Structure (SMILES)
> 6.10	O=C(NCCc1cn[nH]c1)Nc1nc2c(s1)-c1c(c(-c3cccnc3)nn1-c1ccccc1Cl)CC2
> 6.10	Cc1nn(C)cc1CNC(=O)Nc1nc2c(s1)-c1c(c(-c3cccnc3)nn1-c1ccccc1Cl)CC2
> 6.10	O=C(Nc1ccccc1)Nc1nc2c(s1)-c1c(c(-c3cncnc3)nn1-c1ccccc1Cl)CC2
> 6.10	CC(=O)Nc1cccc(CNC(=O)Nc2nc3c(s2)-c2c(c(C4CC4)nn2-c2ccccc2Cl)CC3)c1
> 6.10	O=C(NCCc1cccc(C(F)(F)F)c1)Nc1nc2c(s1)-c1c(c(-c3cncnc3)nn1-c1ccccc1Cl)CC2
> 6.10	CNC(=O)Nc1nc2c(s1)-c1c(c(-c3ccccc3)nn1-c1ccccc1Cl)CC2
> 6.10	CN(C)C(=O)Nc1nc2c(s1)-c1c(c(-c3cccnc3)nn1-c1ccccc1Cl)CC2
> 6.10	CNC(=O)[C@@H](C)NC(=O)Nc1nc2c(s1)-c1c(c(-c3ccccc3)nn1-c1ccccc1Cl)CC2
> 6.10	CC(C)(C)OC(=O)Nc1cccc(CNC(=O)Nc2nc3c(s2)-c2c(c(-c4cccnc4)nn2-c2ccccc2Cl)CC3)c1
> 6.10	CN(C)C(=O)CNC(=O)Nc1nc2c(s1)-c1c(c(-c3cccnc3)nn1-c1ccccc1Cl)CC2
> 6.10	Cc1nc[nH]c1-c1cccc(CNC(=O)Nc2nc3c(s2)-c2c(c(-c4cncnc4)nn2-c2ccccc2Cl)CC3)c1
> 6.10	O=C(NCCN1CCNC1=O)Nc1nc2c(s1)-c1c(c(-c3cccnc3)nn1-c1ccccc1Cl)CC2
> 6.10	C[C@@H](NC(=O)Nc1nc2c(s1)-c1c(c(-c3ccccc3)nn1-c1ccccc1Cl)CC2)C(=O)N(C)C
> 6.10	CC(C)c1cccc(CNC(=O)Nc2nc3c(s2)-c2c(c(C4CC4)nn2-c2ccccc2Cl)CC3)c1
> 6.10	NCCNC(=O)Nc1nc2c(s1)-c1c(c(-c3ccccc3)nn1-c1ccccc1Cl)CC2
> 6.10	CCn1cnc(CCNC(=O)Nc2nc3c(s2)-c2c(c(-c4cccnc4)nn2-c2ccccc2Cl)CC3)c1
> 6.10	CN1CCC(CNC(=O)Nc2nc3c(s2)-c2c(c(-c4cccnc4)nn2-c2ccccc2Cl)CC3)CC1
> 6.10	Cn1cc(CCNC(=O)Nc2nc3c(s2)-c2c(c(-c4ccccc4)nn2-c2ccccc2Cl)CC3)cn1
> 6.10	CC(=O)N(C)c1cccc(CNC(=O)Nc2nc3c(s2)-c2c(c(-c4cccnc4)nn2-c2ccccc2Cl)CC3)c1
> 6.10	O=C(NCc1cccc(N2CCNC2=O)c1)Nc1nc2c(s1)-c1c(c(-c3cncnc3)nn1-c1ccccc1Cl)CC2
> 6.10	Cc1ccc(CN2CC(CNC(=O)Nc3nc4c(s3)-c3c(c(-c5cccnc5)nn3-c3ccccc3Cl)CC4)CC2=O)cc1 (stereo not drawn)
> 6.10	O=C(NCc1cccc(-c2ccccc2)c1)Nc1nc2c(s1)-c1c(c(-c3cncnc3)nn1-c1ccccc1Cl)CC2
> 6.10	CCc1cnc(CCNC(=O)Nc2nc3c(s2)-c2c(c(-c4cccnc4)nn2-c2ccccc2Cl)CC3)o1
> 6.10	CN(C)CCNC(=O)Nc1nc2c(s1)-c1c(c(-c3cccnc3)nn1-c1ccccc1Cl)CC2
> 6.10	CCc1cccc(CNC(=O)Nc2nc3c(s2)-c2c(c(-c4cccnc4)nn2-c2ccccc2Cl)CC3)c1
> 6.10	CN(C)CCOc1cccc(CNC(=O)Nc2nc3c(s2)-c2c(c(-c4cncnc4)nn2-c2ccccc2Cl)CC3)c1
> 6.10	CC1(C)NC(=O)N(Cc2ccc(CNC(=O)Nc3nc4c(s3)-c3c(c(-c5cccnc5)nn3-c3ccccc3Cl)CC4)cc2)C1=O
> 6.10	O=C(NCCc1ccccn1)Nc1nc2c(s1)-c1c(c(-c3cncnc3)nn1-c1ccccc1Cl)CC2
> 6.10	CCN1CCC[C@@H]1CNC(=O)Nc1nc2c(s1)-c1c(c(-c3cccnc3)nn1-c1ccccc1Cl)CC2
